Measured values reported in patent US8628770B2, “Slimming cosmetic composition containing a substance inducing the production of IL-6” (Sanofi, priority 1999, dated 2014).

Tested on: mature adipocytes 3T3-L1
Experiment: Production of IL-6 by the mature adipocytes 3T3-L1 (ELISA)
Type: cell-based, murine
Conditions: reference IL-6 inducer at 50 ng/ml
Text: The biological effects of substance C in vitro has been studied on the murine line 3T3-L1. This preadipocyte line, routinely cultured in DMEM medium ([…]) enriched with 10% foetal calf serum has the property of differentiating into mature adipocytes in the presence of inducers such as insulin and indomethacin (Slieker L. J. Biochem. Biophys. Res. Com. 1998, 251, 225-229). […] This passage from the stage of immature cell to the stage of functional adipocyte can be morphologically assessed by the appearance of intracytoplasmic lipid storage vesicles which are visible under the microscope or which can be biochemically detected by measuring the production of leptin, the hormone for satiety produced solely by mature adipocytes.
The influence of substance C on the adipocyte activity was evaluated at two levels. […]
Mature adipocytes 3T3-L1 (harvested after 10 days of differentiation induced by the insulin (5 μg/ml) and indomethacin (125 μm) combination) are stimulated with substance C at 1% (v/v) for 24 hours. The culture supernatant is then removed and its IL-6 content measured by ELISA (Enzyme Linked Immunosorbent Assay) according to the supplier's instructions (R&D Systems, Abingdon, GB). […]

TNF-α was tested, and the “IL-6 content of culture supernatant” value was 52 pg/mL.
